Reference: ChEMBL document CHEMBL5385858, “Identification of novel Pyrrolo[2,3-d]Pyrimidine-based KRAS G12C inhibitors with anticancer effects” (Eur J Med Chem, 2023)
Activity calls are given as the source filed them. The calls are words filed in the database; no cut-off is given here.

Columns and labels:
[1] = Half life in ICR mouse at 30 mg/kg, po measured for 24 hrs by LC-MS/MS analysis; assay type: ADME, organism-based; details: in vivo
[2] = tested on: NCI-H358; assay: Antitumor activity in human NCI-H358 cells xenografted in BALB/c-nu/nu mouse assessed as tumor growth inhibition at 10 mg/kg, po qd treated for 20 days relative to control; assay type: functional; details: Mus musculus, NCI-H358, 480 h, time 20 day, read-out: TGI
[3] = tested on: NCI-H358; assay: Induction of apoptosis in human NCI-H358 cells assessed as increase in cleaved PARP level upto 5 uM incubated for 24 hrs by Western blot analysis; assay type: functional, cell-based
[4] = tested on: GTPase KRas (Homo sapiens), P01116 [G12C]; assay: Inhibition of KRAS G12C mutant in human NCI-H358 cells assessed as decrease in AKT phosphorylation incubated for 2 to 72 hrs by Western blot analysis; assay type: cell-based; details: time 2-72 hrs
[5] = Tmax in ICR mouse at 30 mg/kg, po measured for 24 hrs by LC-MS/MS analysis; assay type: ADME, organism-based; details: in vivo
[6] = Toxicity in BALB/c-nu/nu mouse xenografted with human NCI-H358 cells assessed as histological change in heart at 10 to 30 mg/kg, po qd treated for 20 days by H and E staining based analysis; assay type: organism-based; details: in vivo, 480 h, dose 10-30 mg/kg, time 20 day
[7] = tested on: GTPase KRas (Homo sapiens), P01116 [G12C]; assay: Inhibition of KRAS G12C mutant in human NCI-H358 cells assessed as decrease in ERK phosphorylation upto 5 uM by Western blot analysis; assay type: cell-based; details: time 2-72 hrs, TDE = time-dependent effect
[8] = Toxicity in BALB/c-nu/nu mouse xenografted with human NCI-H358 cells assessed as histological change in liver at 10 to 30 mg/kg, po qd treated for 20 days by H and E staining based analysis; assay type: organism-based; details: in vivo, 480 h, dose 10-30 mg/kg, time 20 day
[9] = tested on: NCI-H358; assay: Induction of apoptosis in human NCI-H358 cells assessed as viable cells at 0.5 uM incubated for 24 hrs by Annexin V-FITC/PI staining based flow cytometry (reference value: 91.4 %); assay type: functional; details: read-out: Activity
[10] = tested on: NCI-H358; assay: Inhibition of cell migration in human NCI-H358 cells at 0.1 to 1 uM measured for 48 hrs by wound scratch assay; assay type: functional, cell-based; details: dose 0.1-1 µM
[11] = target: SOS1-KRAS (Homo sapiens, UniProt P01116, G12C); assay: Inhibition of KRAS G12C mutant/SOS1 (unknown origin) interaction incubated for 2 hrs in presence of GTP by HTRF assay; assay type: protein-complex assay
[12] = tested on: NCI-H358; assay: Induction of apoptosis in human NCI-H358 cells assessed as late apoptotic cells at 0.5 uM incubated for 24 hrs by Annexin V-FITC/PI staining based flow cytometry (reference value: 1.32 %); assay type: functional
[13] = tested on: NCI-H358; assay: Induction of apoptosis in human NCI-H358 cells assessed as early apoptotic cells at 0.3 uM incubated for 24 hrs by Annexin V-FITC/PI staining based flow cytometry (reference value: 5.4 %); assay type: functional
[14] = tested on: NCI-H358; assay: Induction of apoptosis in human NCI-H358 cells assessed as early apoptotic cells at 0.5 uM incubated for 24 hrs by Annexin V-FITC/PI staining based flow cytometry (reference value: 5.4 %); assay type: functional
[15] = tested on: NCI-H358; assay: Induction of apoptosis in human NCI-H358 cells assessed as necrotic cells at 1 uM incubated for 24 hrs by Annexin V-FITC/PI staining based flow cytometry (reference value: 1.88 %); assay type: functional
[16] = Toxicity in BALB/c-nu/nu mouse xenografted with human NCI-H358 cells assessed as histological change in lung at 10 to 30 mg/kg, po qd treated for 20 days by H and E staining based analysis; assay type: organism-based; details: in vivo, 480 h, dose 10-30 mg/kg, time 20 day
[17] = tested on: NCI-H358; assay: Antiproliferative activity against human NCI-H358 cells harboring KRAS G12C mutant assessed as inhibition of cell proliferation incubated for 3 days by CCK8 assay; assay type: functional, cell-based; details: NCI-H358, 72 h
[18] = Toxicity in BALB/c-nu/nu mouse xenografted with human NCI-H358 cells assessed as morphological damage in heart at 10 to 30 mg/kg, po qd treated for 20 days; assay type: organism-based; details: in vivo, 480 h, dose 10-30 mg/kg, time 20 day
[19] = tested on: NCI-H358; assay: Induction of apoptosis in human NCI-H358 cells assessed as late apoptotic cells at 0.3 uM incubated for 24 hrs by Annexin V-FITC/PI staining based flow cytometry (reference value: 1.32 %); assay type: functional
[20] = tested on: NCI-H358; assay: Induction of apoptosis in human NCI-H358 cells assessed as viable cells at 0.3 uM incubated for 24 hrs by Annexin V-FITC/PI staining based flow cytometry (reference value: 91.4 %); assay type: functional; details: read-out: Activity
[21] = tested on: NCI-H358; assay: Induction of apoptosis in human NCI-H358 cells assessed as late apoptotic cells at 1 uM incubated for 24 hrs by Annexin V-FITC/PI staining based flow cytometry (reference value: 1.32 %); assay type: functional
[22] = tested on: GTPase KRas (Homo sapiens), P01116 [G12C]; assay: Inhibition of KRAS G12C mutant in human […] cells assessed as decrease in ERK phosphorylation at 5 to 20 uM incubated for 4 hrs by Western blot analysis; assay type: cell-based; details: dose 5-20 µM
[23] = tested on: NCI-H358; assay: Induction of apoptosis in human NCI-H358 cells assessed as viable cells at 1 uM incubated for 24 hrs by Annexin V-FITC/PI staining based flow cytometry (reference value: 91.4 %); assay type: functional; details: read-out: Activity
[24] = tested on: NCI-H358; assay: Induction of apoptosis in human NCI-H358 cells assessed as necrotic cells at 0.5 uM incubated for 24 hrs by Annexin V-FITC/PI staining based flow cytometry (reference value: 1.88 %); assay type: functional
[25] = tested on: NCI-H358; assay: Antiproliferative activity against human NCI-H358 cells harboring siKRAS assessed as inhibition of cell proliferation; assay type: functional, cell-based
[26] = Toxicity in BALB/c-nu/nu mouse xenografted with human NCI-H358 cells assessed as histological change in spleen at 10 to 30 mg/kg, po qd treated for 20 days by H and E staining based analysis; assay type: organism-based; details: in vivo, 480 h, dose 10-30 mg/kg, time 20 day
[27] = tested on: NCI-H358; assay: Induction of apoptosis in human NCI-H358 cells assessed as late apoptotic cells at 0.1 uM incubated for 24 hrs by Annexin V-FITC/PI staining based flow cytometry (reference value: 1.32 %); assay type: functional
[28] = tested on: NCI-H358; assay: In vivo inhibition of KRAS G12C mutant in human NCI-H358 cells xenografted in BALB/c-nu/nu mouse assessed as decrease in AKT phosphorylation at 10 to 30 mg/kg, po qd treated for 20 days by Western blot analysis; assay type: functional, organism-based; details: dose 10-30 mg/kg, time 20.0 day
[29] = tested on: NCI-H358; assay: Antiproliferative activity against human NCI-H358 cells harboring KRAS G12C/Y96D mutant assessed as inhibition of cell proliferation incubated for 48 hrs by CCK8 assay; assay type: functional, cell-based
[30] = AUC (0 to t) in ICR mouse at 30 mg/kg, po measured for 24 hrs by LC-MS/MS analysis; assay type: ADME, organism-based; parameters: dose 30 mg/kg, time 24 hrs, route po; details: in vivo
[31] = tested on: NCI-H358; assay: Induction of apoptosis in human NCI-H358 cells assessed as necrotic cells at 0.1 uM incubated for 24 hrs by Annexin V-FITC/PI staining based flow cytometry (reference value: 1.88 %); assay type: functional
[32] = tested on: NCI-H358; assay: Induction of apoptosis in human NCI-H358 cells assessed as early apoptotic cells at 1 uM incubated for 24 hrs by Annexin V-FITC/PI staining based flow cytometry (reference value: 5.4 %); assay type: functional

Sequence of GTPase KRas (Homo sapiens), P01116 [G12C] (P01116 whole entry G12C): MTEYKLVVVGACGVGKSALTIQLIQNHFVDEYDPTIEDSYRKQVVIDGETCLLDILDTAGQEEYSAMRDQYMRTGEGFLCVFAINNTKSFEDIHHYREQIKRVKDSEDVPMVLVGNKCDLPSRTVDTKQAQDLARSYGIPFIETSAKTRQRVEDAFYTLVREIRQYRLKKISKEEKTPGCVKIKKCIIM
Sequence of SOS1-KRAS (P01116 whole entry G12C, looked up): as the sequence (P01116 whole entry G12C) above

C=CC(=O)N1CCN(c2nc(OC[C@@]34CCCN3C[C@H](F)C4)nc3c2cc(-c2cccc4cccc(C)c24)n3C)C[C@@H]1CC#N
half-life [1]: 4.79 h
inhibition in vivo at 10 mg/kg [2]: 65.4%
Activity [3]: Active
inhibition [4]: Dose-Dependent Effect
Tmax [5]: 4.98 min
Activity [6]: Non-Toxic
inhibition [7]: Tde
Activity [8]: Non-Toxic
viability at 0.5 µM [9]: 79%
Activity [10]: Active
IC50 [11]: 210 nM
Activity [12]: 6.26%
Activity [13]: 11.8%
Activity [14]: 14%
Activity [15]: 1.03%
Activity [16]: Non-Toxic
IC50 [17]: 160 nM
Activity [18]: Non-Toxic
Activity [19]: 3.93%
viability at 0.3 µM [20]: 83.2%
Activity [21]: 5.34%
inhibition [22]: Active
viability at 1 µM [23]: 71.2%
Activity [24]: 0.8%
inhibition [25]: Active
Activity [26]: Non-Toxic
Activity [27]: 3.71%
inhibition [28]: Active
inhibition [29]: Active
AUC(0-t) at 24 h [30]: 600 ng·h/mL
Activity [31]: 1.17%
Activity [32]: 22.4%
